What was measured:
[1] = tested on: non-insulin dependent diabetes mellitus (NIDDM); assay: Glycemic control (FSG, HbA1c, responders) in 52-week double-blind clinical study; assay type: in vivo, patients; details: for ≥30 mg/dL Reduction in FSG, Responders, N (%) / ≥1% Reduction in HbA1c, Responders, N (%): *p ≤ 0.001 vs glyburide
Excerpt: The method of treating diabetes employing a combination of a sulfonylurea and a glitazone has been established in a long-term controlled clinical evaluation. The study determined the efficacy and safety of troglitazone alone and in combination with the sulfonylurea glyburide for the treatment of non-insulin dependent diabetes mellitus (NIDDM). This study targeted the segment of the NIDDM population in which the disease state has progressed to a point where maximum doses of sulfonylureas no longer produce adequate glycemic control. […] Since the unstimulated (absence of sulfonylurea) insulin secretory capacity of the beta cells is very low in this population, reversing insulin resistance alone would be of partial benefit. Therefore, maintaining a level of stimulated insulin secretion with a sulfonylurea while adding troglitazone to improve insulin sensitivity could provide a level of glycemic control unattainable by either medication alone. […] Long-term safety was also an objective of this study, assessed by adverse events and clinical laboratory data. This was a 12-month, double-blind, randomized, parallel-group, active-control, multicenter study design (FIG. 1). […] The primary efficacy parameters included endpoints related to glucose homeostasis: FSG and HbA1c. The change from baseline in these parameters at Week 52 compared to active control (glyburide) was the primary measure of efficacy. For patients terminating early from the study, their last observation was carried forward (LOCF) to Week 52. A decrease in these parameters was indicative of an improvement in glycemic control. Efficacy analysis was performed on 2 patient populations, intent-to-treat and completers. […] Patients withdrawing from the study before Week 52 were included in the analysis using the LOCF procedure; the last measurement on treatment was substituted for the missing Week 52 measurement. The intent-to-treat patient sample was the primary sample for assessing efficacy. Completers comprised patients in the intent-to-treat sample who completed Week 52. The analysis of change from baseline to Week 52 was performed using analysis of covariance (ANCOVA). The primary model included effects due to treatment and center and baseline as covariate. Treatment-by-baseline and treatment-by-center interactions were also examined in supplemental models. For the primary comparisons of glyburide versus each combination, step-down tests for linear trend in dose response were performed based on the primary model. For the remaining primary pairwise comparisons of glyburide versus each monotherapy, t-tests were performed using the MSE from the analysis of covariance (with a Bonferroni-Holm adjustment). For all comparisons with glyburide, 95 confidence intervals are provided using Dunnett's test. […] For each patient, the baseline measurement for a given parameter was defined as the measurement at Week 0. […] The frequency distribution (number and percentage) of responders were provided by treatment group and visit. For the set of primary treatment comparisons concerning glyburide versus combination therapy, step-down comparisons of responders in each treatment group versus the glyburide group were performed by sequential application of the Cochran-Mantel-Haenszel (CMH) test for linear trend with study centers as strata. […] The CMH test for general association were also used to perform the secondary treatment comparisons as supplemental analysis.

[2] = tested on: lipid parameters (markers of lipid metabolism); assay: Fasting serum lipid profile in 52-week clinical study; assay type: in vivo, patients
Experimental: After an initial screening visit, patients meeting the inclusion criteria entered a 4-week baseline phase (unblinded) in which they received 12 mg micronized glyburide (6 mg BID).
Secondary efficacy parameters included markers of glycemic homeostasis (insulin and C-peptide) and markers of lipid metabolism (total cholesterol, total triglycerides, HDL, VLDL, LDL (measured), free fatty acids, Lp(a), Apo A1, and Apo B).
Efficacy analysis was performed on 2 patient populations, intent-to-treat and completers. […] Patients withdrawing from the study before Week 52 were included in the analysis using the LOCF procedure; the last measurement on treatment was substituted for the missing Week 52 measurement. The intent-to-treat patient sample was the primary sample for assessing efficacy. Completers comprised patients in the intent-to-treat sample who completed Week 52.
Summary statistics for baseline, follow-up (post-randomization), and change from baseline in secondary efficacy parameters were computed by treatment group and visit. For each patient, the baseline measurements for insulin, C-peptide, blood pressure, total cholesterol, triglycerides, LDL, HDL, VLDL, and free fatty acids were defined as the measurement at Week 0. In order to reduce variability, the baseline Apo A, Apo B, and Lp(a) levels were defined as the average of the respective measurements at Weeks -1 and 1. Similarly, the end-of-treatment Apo A, Apo B, and Lp(a) measurements were defined as the average of the respective measurements at Weeks 48 and 52. Averages from Weeks 20 and 24 were not carried forward for these special lipid parameters.
Fasting serum lipid profiles were determined at baseline and periodically through Week 52. Apo A1, Apo B, and Lp(a) were determined only at baseline, Month 6, and Month 12 as part of a special laboratory panel.

[3] = Completers, Week 52, troglitazone 200 mg, or 200 mg/12 mg in combination
[4] = Completers, Week 52, troglitazone 200 mg, or 200 mg/12 mg in combination, *p ≤ 0.05, **p ≤ 0.0001
[5] = Completers, Week 52, troglitazone 400 mg, or 400 mg/12 mg in combination
[6] = Completers, Week 52, troglitazone 600 mg, or 600 mg/12 mg in combination
[7] = ITT, Week 52, troglitazone 200 mg, or 200 mg/12 mg in combination
[8] = ITT, Week 52, troglitazone 200 mg, or 200/12 mg in combination
[9] = ITT, Week 52, troglitazone 400 mg, or 400 mg/12 mg in combination, *p ≤ 0.001, **p ≤ 0.0001
[10] = ITT, Week 52, troglitazone 400 mg, or 400/12 mg in combination
[11] = ITT, Week 52, troglitazone 600 mg, or 600 mg/12 mg in combination, *p ≤ 0.001, **p ≤ 0.0001
[12] = ITT, Week 52, troglitazone 600 mg, or 600/12 mg in combination

## Cc1c(C)c2c(c(C)c1O)CCC(C)(COc1ccc(CC3SC(=O)NC3=O)cc1)O2 (stereo not shown) [Troglitazone]
[1]; [3]
  Fasting Serum Glucose, Adjusted Mean Change From Baseline (SE): 13.4 (12.0) mg/dL
  Hemoglobin A1c, Adjusted Mean Change From Baseline (SE): 0.55 (0.38) %
[1]; [4]
  Fasting Serum Glucose, Adjusted Mean Difference From Glyburide Monotherapy (SE): 0.3 (14.6) mg/dL
  Hemoglobin A1c, Adjusted Mean Difference From Glyburide Monotherapy (SE): -0.23 (0.46) %
[1]; [5]
  Fasting Serum Glucose, Adjusted Mean Change From Baseline (SE): -20.5 (9.4) mg/dL
  Hemoglobin A1c, Adjusted Mean Change From Baseline (SE): -0.25 (0.29) %
[1]; [6]
  Fasting Serum Glucose, Adjusted Mean Change From Baseline (SE): -11.7 (9.8) mg/dL
  Hemoglobin A1c, Adjusted Mean Change From Baseline (SE): -0.26 (0.30) %
[1]; Completers, Week 52, troglitazone 600 mg, or 600 mg/12 mg in combination, *p ≤ 0.05, **p ≤ 0.0001
  Fasting Serum Glucose, Adjusted Mean Difference From Glyburide Monotherapy (SE): -24.8 (12.6) mg/dL
[1]; ITT, Week 52 (Month 12), troglitazone 200 mg, or 200 mg/12 mg in combination
  Fasting Serum Glucose, Adjusted Mean Change From Baseline (SE): 42.4 (7.0) mg/dL
[1]; ITT, Week 52 (Month 12), troglitazone 400 mg, or 400 mg/12 mg in combination
  Fasting Serum Glucose, Adjusted Mean Change From Baseline (SE): 20.6 (7.0) mg/dL
[1]; ITT, Week 52 (Month 12), troglitazone 600 mg, or 600 mg/12 mg in combination
  Fasting Serum Glucose, Adjusted Mean Change From Baseline (SE): 11.1 (7.1) mg/dL
[1]; ITT, Week 52, 400 and 600 mg troglitazone monotherapy
  FSG versus glyburide (result in words): these decreases were not significant
[1]; [7]
  Hemoglobin A1c, Adjusted Mean Change From Baseline (SE): 1.92 (0.20) %
[1]; ITT, Week 52, troglitazone 200 mg, or 200 mg/12 mg in combination, *p ≤ 0.001, **p ≤ 0.0001
  Fasting Serum Glucose, Adjusted Mean Difference From Glyburide Monotherapy (SE): 19.6 (9.7) mg/dL
[1]; ITT, Week 52, troglitazone 200 mg, or 200 mg/12 mg in combination, listed as troglitazone
  Hemoglobin A1c, Adjusted Mean Change From Baseline (SE): 1.92%
[1]; [8]
  ≥30 mg/dL Reduction in FSG, Responders, N (%): 11 (14) N (%)
  ≥1% Reduction in HbA1c, Responders, N (%): 3 (4) N (%)
[1]; ITT, Week 52, troglitazone 400 mg, or 400 mg/12 mg in combination
  Hemoglobin A1c, Adjusted Mean Change From Baseline (SE): 0.85 (0.20) %
[1]; [9]
  Fasting Serum Glucose, Adjusted Mean Difference From Glyburide Monotherapy (SE): -2.2 (9.7) mg/dL
  Hemoglobin A1c, Adjusted Mean Difference From Glyburide Monotherapy (SE): -0.05 (0.28) %
[1]; [10]
  ≥30 mg/dL Reduction in FSG, Responders, N (%): 20 (26) N (%)
  ≥1% Reduction in HbA1c, Responders, N (%): 13 (17) N (%)
[1]; ITT, Week 52, troglitazone 600 mg, or 600 mg/12 mg in combination
  Hemoglobin A1c, Adjusted Mean Change From Baseline (SE): 0.93 (0.20) %
[1]; [11]
  Fasting Serum Glucose, Adjusted Mean Difference From Glyburide Monotherapy (SE): -11.6 (9.7) mg/dL
  Hemoglobin A1c, Adjusted Mean Difference From Glyburide Monotherapy (SE): 0.03 (0.28) %
[1]; [12]
  ≥30 mg/dL Reduction in FSG, Responders, N (%): 18 (24) N (%)
  ≥1% Reduction in HbA1c, Responders, N (%): 8 (11) N (%)
[1]; completers, 400 and 600 mg troglitazone monotherapy, p ≤0.05
  HbA1c versus glyburide monotherapy (result in words): HbA1c decreased significantly (p ≤0.05) compared with glyburide monotherapy
[2]; 600 mg troglitazone monotherapy, p<0.05
  HDL adjusted mean change, difference from glyburide: 4.9 mg/dL
[2]; [7]
  Apo A1, Change From Baseline, Mean: 1.9 mg/dL
  Apo B, Change From Baseline, Mean: 6.4 mg/dL
  Free Fatty Acids, Change From Baseline, Mean: -0.09 mEq/L
  Free Fatty Acids, Change From Baseline, Median: -0.04 mEq/L
  HDL Cholesterol, Change From Baseline, Mean: 0.86 mg/dL
  HDL Cholesterol, Change From Baseline, Median: 1.00 mg/dL
  LDL Cholesterol, Change From Baseline, Mean: 17.78 mg/dL
  LDL Cholesterol, Change From Baseline, Median: 20.50 mg/dL
  LP(a), Change From Baseline, Mean: 8.8 mg/dL
  Total Cholesterol, Change From Baseline, Mean: 19.96 mg/dL

Source: patent publication US5859037A, “Sulfonylurea-glitazone combinations for diabetes” (Warner-Lambert Company, priority 1997, dated 1999)
